Consider twelve compounds from patent US8748608B2, “4-phenylpiperazine derivatives with functionalized linkers as dopamine D3 receptor selective ligands and methods of use” (The United States of America as Represented by the …, priority 2007, dated 2014).

The target of assay [1] is human dopamine D2-long (D2) receptor (Homo sapiens (Human), UniProt P14416). The assay is described as follows: Human D2-like receptor competition binding in HEK cells, D2. The following applies: hD2L. From the text: (§1) Human dopamine D2-long (D2) and D3 (D3) receptors were expressed in HEK cells. In brief, stably transfected HEK cells expressing the human D2-long and the D3 dopamine receptor were developed using the pIRES bicistronic expression vector (CLONTECH; Palo Alto, Calif.). […] For comparison, human dopamine D4 (D4) receptors were obtained from HEK 293 cells stably transfected with a PCR product of a human cDNA coding for the D4.4 form of the human D4 dopamine receptor.
(§2) The procedures to determine the binding affinities at the human dopamine D2-like receptors, the binding affinities at the serotonin 5HT1A, 5HT2A and 5HT2c receptors and functional mitogenesis assay are known in the art. […] Both of these references are incorporated by reference.

Assay [2] has as its target human dopamine D3 receptor (Homo sapiens (Human), UniProt P35462). The assay is described as follows: Human D2-like receptor competition binding in HEK cells, D3. The following applies: for D2/D3: ratio of Ki at D2 over Ki at D3.
Description: as §1, §2

Assay [3] has as its target T1, D2 receptor (human) in CHOp-cells (Homo sapiens (Human), UniProt P14416). The assay is described as follows: D2 inhibition of quinpirole stimulation of mitogenesis (antagonist assay). The format is cell-based. The following applies: inhibition of 30 nM quinpirole stimulated mitogenesis, read-out: IC50 ± S.E.M., D2. On the procedure:
(§3) The cells were incubated at 37° C. in α-MEM with 10% FBS, 0.05% penicillin-streptomycin, and 200 μg/mL of G418. After 48 hours, the cells were rinsed twice with serum-free α-MEM and incubated for 24 hours at 37° C. In the functional assay for agonism, the medium was removed and replaced with 90 μl of serum-free α-MEM and 10 μl of test compound in sterile water; in the antagonist assay, the test compound was diluted in sterile water plus 30 nM quinpirole. After another 24-hour incubation at 37° C., 0.25 μCi of [^3H]thymidine was added to each well and the plates were further incubated for 2 hours at 37° C. The cells were then trypsinized, and the plates were filtered and counted as usual in the art. Quinpirole was run on every plate as an internal standard.
as §2

The target in another assay is serotonin 5HT1A receptor (Homo sapiens (Human), UniProt P08908). The assay is described as follows: Serotonin receptor binding, 5HT1A. The following applies: ratio of affinities. An excerpt: (§4) The procedures to determine the binding affinities at the human dopamine D2-like receptors, the binding affinities at the serotonin 5HT1A, 5HT2A and 5HT2c receptors and functional mitogenesis assay are known in the art. See J. Med. Chem. 2005, 48, 839-848. See also, NIDA Research Monograph #178, Proceedings of the College of Drug Dependence, p. 440-466, 1998. Both of these references are incorporated by reference.

Assay [4] addresses T2, human dopamine D3 receptors in CHO cells (Homo sapiens (Human), UniProt P35462). In words: D3 inhibition of quinpirole stimulation of mitogenesis (antagonist assay). The format is cell-based. The following applies: inhibition of 30 nM quinpirole stimulated mitogenesis, CHOp cells; read-out: IC50 ± S.E.M., D3. Here is the method: as §3, §2
The next assay deals with serotonin 5HT2c receptor (Homo sapiens (Human), UniProt P28335). The assay is described as follows: Serotonin receptor binding, 5HT2c. The following applies: ratio of affinities, 5HT2c over D3.
Description: as §2

The target of the next assay is serotonin 5HT2A receptor (Homo sapiens (Human), UniProt P28223). The assay is described as follows: Serotonin receptor binding, 5HT2A. The following applies: ratio of affinities.
Description: as §2

In assay [5] the target is T1, D2 receptor (human) in CHOp-cells. In words: D2 stimulation of mitogenesis (agonist assay). The format is cell-based. The following applies: for EC50: read-out: partial agonist activity: EC50, D2. On the procedure: as §3, §4
In assay [6] the target is T2, human dopamine D3 receptors in CHO cells. The assay is described as follows: D3 stimulation of mitogenesis (agonist assay). The format is cell-based. The following applies: CHOp cells; for EC50: read-out: partial agonist activity: EC50, D3 (converted). On the procedure: as §3, §4
Assay [7] deals with T3, human D4.4 dopamine receptor (Homo sapiens (Human), UniProt P21917). In words: Human D2-like receptor competition binding in HEK cells, D4. The following applies: for Ki: HEK 293 cells, hD4.4; for D4/D3 Ki ratio: head printed D4/D2, values correspond to D4 Ki over D3 Ki.
Description: as §1, §2

The target of the next assay is D1a dopamine receptors (Homo sapiens (Human), UniProt P21728). The following applies: cited from earlier work.
The next assay concerns σ2 binding sites. The following applies: cited from earlier work.
Another assay deals with σ1 binding sites. The following applies: cited from earlier work.
In assay [8] the target is T3, human D4.4 dopamine receptor. The following applies: HEK 293 cells; relative to D2 and D3; cited from earlier work.
[9] abbreviates: HEK cells, hD3, read-out: D3 Ki.
Where [10] appears, read: Table 3, unit inferred, with spread, read-out: D3 binding affinity.

SMILES strings stand for the structures. Like-named read-outs stand apart in the source and are kept apart here.

Sequence of serotonin 5HT2A receptor (P28223 whole entry): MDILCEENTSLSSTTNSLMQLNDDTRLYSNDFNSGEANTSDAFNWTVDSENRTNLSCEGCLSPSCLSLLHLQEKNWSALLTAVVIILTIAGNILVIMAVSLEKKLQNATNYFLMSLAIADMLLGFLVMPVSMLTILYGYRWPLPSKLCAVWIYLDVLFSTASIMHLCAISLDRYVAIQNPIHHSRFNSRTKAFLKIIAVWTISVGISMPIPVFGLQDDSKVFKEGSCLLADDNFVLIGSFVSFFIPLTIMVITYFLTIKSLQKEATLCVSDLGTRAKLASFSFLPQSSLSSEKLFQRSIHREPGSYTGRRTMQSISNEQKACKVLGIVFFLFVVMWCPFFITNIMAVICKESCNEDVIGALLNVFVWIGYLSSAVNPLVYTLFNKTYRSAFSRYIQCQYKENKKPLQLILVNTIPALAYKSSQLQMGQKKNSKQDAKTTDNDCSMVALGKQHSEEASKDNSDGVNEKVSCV
Sequence of serotonin 5HT1A receptor (P08908 whole entry): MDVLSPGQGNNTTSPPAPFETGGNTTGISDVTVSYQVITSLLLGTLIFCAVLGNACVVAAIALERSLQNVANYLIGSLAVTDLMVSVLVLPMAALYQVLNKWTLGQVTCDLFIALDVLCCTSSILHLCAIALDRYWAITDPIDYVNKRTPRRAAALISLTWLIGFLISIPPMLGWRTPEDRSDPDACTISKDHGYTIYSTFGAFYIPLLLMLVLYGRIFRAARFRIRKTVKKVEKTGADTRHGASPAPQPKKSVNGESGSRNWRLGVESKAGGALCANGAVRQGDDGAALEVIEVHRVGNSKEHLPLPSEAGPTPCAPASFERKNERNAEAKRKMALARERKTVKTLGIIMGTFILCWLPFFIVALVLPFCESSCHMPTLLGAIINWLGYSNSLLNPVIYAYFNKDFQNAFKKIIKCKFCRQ
T2 sequence (P35462 whole entry): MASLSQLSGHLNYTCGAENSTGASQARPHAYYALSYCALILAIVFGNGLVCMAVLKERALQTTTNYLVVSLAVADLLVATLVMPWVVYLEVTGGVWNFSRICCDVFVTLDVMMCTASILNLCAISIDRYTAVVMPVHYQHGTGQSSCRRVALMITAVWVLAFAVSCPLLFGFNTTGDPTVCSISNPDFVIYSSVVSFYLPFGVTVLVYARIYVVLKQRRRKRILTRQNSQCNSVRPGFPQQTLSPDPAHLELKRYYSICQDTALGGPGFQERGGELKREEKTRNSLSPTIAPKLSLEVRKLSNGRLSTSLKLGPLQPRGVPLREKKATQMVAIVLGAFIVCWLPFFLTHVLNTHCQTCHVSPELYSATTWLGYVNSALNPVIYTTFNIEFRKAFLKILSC
Sequence of human dopamine D3 receptor (P35462 whole entry): as above
T3 sequence (P21917 whole entry): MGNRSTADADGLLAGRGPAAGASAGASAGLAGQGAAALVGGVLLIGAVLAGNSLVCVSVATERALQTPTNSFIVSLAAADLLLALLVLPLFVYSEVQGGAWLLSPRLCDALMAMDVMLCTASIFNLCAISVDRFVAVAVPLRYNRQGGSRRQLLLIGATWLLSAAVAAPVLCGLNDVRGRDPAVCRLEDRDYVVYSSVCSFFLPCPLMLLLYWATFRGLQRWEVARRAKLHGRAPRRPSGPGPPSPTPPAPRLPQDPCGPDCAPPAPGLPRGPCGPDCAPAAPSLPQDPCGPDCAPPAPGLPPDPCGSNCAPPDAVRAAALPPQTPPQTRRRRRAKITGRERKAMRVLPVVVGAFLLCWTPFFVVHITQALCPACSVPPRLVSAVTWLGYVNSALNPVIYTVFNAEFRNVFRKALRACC
Sequence of serotonin 5HT2c receptor (P28335 33-458): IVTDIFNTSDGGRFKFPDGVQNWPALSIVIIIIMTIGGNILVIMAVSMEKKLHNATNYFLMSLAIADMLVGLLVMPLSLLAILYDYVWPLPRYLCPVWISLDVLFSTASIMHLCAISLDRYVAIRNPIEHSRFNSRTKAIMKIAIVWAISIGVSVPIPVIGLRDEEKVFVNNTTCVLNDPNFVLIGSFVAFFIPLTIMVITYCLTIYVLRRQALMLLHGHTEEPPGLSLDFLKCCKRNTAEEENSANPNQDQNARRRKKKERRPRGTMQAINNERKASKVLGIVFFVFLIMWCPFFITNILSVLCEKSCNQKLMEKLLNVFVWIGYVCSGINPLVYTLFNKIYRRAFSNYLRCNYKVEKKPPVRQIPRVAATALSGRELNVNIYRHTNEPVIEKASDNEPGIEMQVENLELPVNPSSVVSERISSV
Sequence of human dopamine D2-long (D2) receptor (P14416 whole entry): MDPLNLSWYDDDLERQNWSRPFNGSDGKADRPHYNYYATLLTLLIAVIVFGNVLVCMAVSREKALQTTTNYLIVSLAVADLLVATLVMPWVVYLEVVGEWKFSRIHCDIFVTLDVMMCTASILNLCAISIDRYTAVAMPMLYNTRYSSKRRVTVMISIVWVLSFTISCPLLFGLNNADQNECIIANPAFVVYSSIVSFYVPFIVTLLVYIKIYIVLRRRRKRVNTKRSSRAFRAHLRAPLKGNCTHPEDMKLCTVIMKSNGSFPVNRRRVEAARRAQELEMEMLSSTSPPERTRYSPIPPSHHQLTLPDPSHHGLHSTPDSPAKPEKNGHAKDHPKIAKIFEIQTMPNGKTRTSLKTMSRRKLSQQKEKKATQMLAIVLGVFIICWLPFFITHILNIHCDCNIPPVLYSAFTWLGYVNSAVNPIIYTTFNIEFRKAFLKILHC
T1 sequence (P14416 whole entry): as above
Sequence of D1a dopamine receptors (P21728 whole entry): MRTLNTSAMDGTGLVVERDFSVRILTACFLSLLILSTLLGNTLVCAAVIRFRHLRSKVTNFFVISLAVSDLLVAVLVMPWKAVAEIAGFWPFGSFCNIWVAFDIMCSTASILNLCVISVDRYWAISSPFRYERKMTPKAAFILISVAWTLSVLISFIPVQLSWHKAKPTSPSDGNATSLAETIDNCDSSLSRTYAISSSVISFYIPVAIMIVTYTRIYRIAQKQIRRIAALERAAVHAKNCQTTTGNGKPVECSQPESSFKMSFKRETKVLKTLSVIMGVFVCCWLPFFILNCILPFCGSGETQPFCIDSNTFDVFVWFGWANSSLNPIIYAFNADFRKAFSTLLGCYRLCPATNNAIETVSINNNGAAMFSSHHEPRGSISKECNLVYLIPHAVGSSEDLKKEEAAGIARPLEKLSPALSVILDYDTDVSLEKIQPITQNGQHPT

In the case of `O=C(NC/C=C/CN1CCN(c2cccc(Cl)c2Cl)CC1)c1ccc(-c2cccc(=O)[nH]2)cc1` [Compound 9, N-(4-(4-(2,3-Dichloro-phenyl)-piperazin-1-yl)-trans-but-2-enyl)-4-(6-oxo-1,6-dihydro-pyridin-2-yl)-benzamide], the Ki in assay [1] was found to be 23.6 nM; in assay [2] (setting [9]), 0.6 nM; in assay [2] (setting [10]) it was 0.6 ± 0.1 nM. The IC50 in assay [3] was found to be 41 ± 8 nM.

For the compound `Cc1cccc(-c2ccc(C(=O)NC/C=C/CN3CCN(c4cccc(Cl)c4Cl)CC3)cc2)n1` [Compound 10, N-(4-(4-(2,3-Dichloro-phenyl)-piperazin-1-yl)-trans-but-2-enyl)-4-(6-methyl-pyridin-2-yl)-benzamide], on serotonin 5HT1A receptor, the 5HT1A/D3 turned out to be 221. Moreover, the results for the IC50 in assay [4] and in assay [3] were 6.7 ± 2.6 nM and 1300 ± 320 nM, respectively. Moreover, the Ki was 105 nM in assay [1], 1.4 nM in assay [2] (setting [9]) and 1.4 ± 0.3 nM in [2] (setting [10]). Further, the 5HT2c/D on serotonin 5HT2c receptor stood at 69. Moreover, the D2/D3 in [2] is given as 75. Further, the 5HT2A/D3 on serotonin 5HT2A receptor was 66.

For the compound `Cc1cccnc1-c1ccc(C(=O)NC/C=C/CN2CCN(c3cccc(Cl)c3Cl)CC2)cc1` [Compound 11, N-(4-(4-(2,3-Dichlorophenyl)piperazin-1-yl)-trans-but-2-enyl)-4-(3-methyl-pyridin-2-yl)-benzamide], at serotonin 5HT1A receptor, the 5HT1A/D3 came to 58. Further, the IC50 in assay [4] was 25.6 ± 8.5 nM; in assay [3], 368 ± 113 nM. In addition, the Ki in assay [1] is 92 nM; in [2] (setting [9]), 1.6 nM; in assay [2] (setting [10]), 1.6 ± 0.4 nM. For the same compound, the 5HT2c/D on serotonin 5HT2c receptor is listed as 19. Further, in assay [2], the D2/D3 is recorded as 58. Moreover, the 5HT2A/D3 at serotonin 5HT2A receptor is reported as 29.

Consider `O=C(NC/C=C/CN1CCN(c2cccc(Cl)c2Cl)CC1)c1ccc(-c2cccc[n+]2[O-])cc1` [Compound 12, N-(4-(4-(2,3-Dichloro-phenyl)-piperazin-1-yl)-trans-but-2-enyl)-4-(pyridin-N-oxide-2-yl)-benzamide], for which, in assay [5], the “partial agonist activity: % stimulation, D2” value is given as 31%. For the same compound, the EC50 in assay [5] worked out at 231 nM. Further, the Ki in assay [1] is 25.8 nM; in assay [2] (setting [9]) it was 1.1 nM; in assay [2] (setting [10]) it was 1.1 ± 0.3 nM. Moreover, the IC50 in assay [3] amounted to 22.9 ± 2 nM.

For the compound `COc1ccccc1N1CCN(C/C=C/CNC(=O)c2ccc(-c3ccccn3)cc2)CC1` [Compound 14, N-(4-(4-(2-Methoxy-phenyl)-piperazin-1-yl)-trans-but-2-enyl)-4-pyridin-2-yl-benzamide], the IC50 in assay [4] came out at 42.6 ± 7.9 nM. The Ki in assay [2] (setting [9]) turned out to be 2.9 nM; in [2] (setting [10]), 2.9 ± 1.1 nM.

Turning to `COc1ccccc1N1CCN(C/C=C/CNC(=O)c2ccc3c(c2)Cc2ccccc2-3)CC1` [Compound 15, N-(4-(4-(2-methoxyphenyl)piperazin-1-yl)-trans-but-2-enyl)-9H-fluorene-2-carboxamide], the Ki in [1] is 48.4 nM. Also, in assay [3], the half-maximal inhibitory concentration (IC50) was determined as 179 ± 48 nM.

For the compound `O=C(NCCC(O)CN1CCN(c2cccc(Cl)c2Cl)CC1)c1ccc(-c2ccccn2)cc1` (stereo not shown) [Compound 16, N-(4-(4-(2,3-Dichlorophenyl)piperazin-1-yl)-3-hydroxybutyl)-4-pyridin-2-yl-benzamide], the “partial agonist activity: % stimulation, D2” value in assay [5] amounted to 26%. The EC50 was 15.8 ± 2.7 nM in assay [5] and 1 ± 0.1 nM in [6]. Besides, on serotonin 5HT1A receptor, the 5HT1A/D3 is 11. For the same compound, the Ki in assay [1] turned out to be 267 nM; in [2] (setting [9]), 3 nM; in assay [2] (setting [10]) it was 3 ± 0.2 nM; in assay [7], 4620 nM. Further, on serotonin 5HT2c receptor, the 5HT2c/D was 38. For the same compound, the D2/D3 in assay [2] came to 89. Moreover, in [6], the “partial agonist activity: % stimulation, D3” value was 48%. The 5HT2A/D3 at serotonin 5HT2A receptor was 14. Also, the “D4/D3 Ki ratio” value in [7] was found to be 1540.

Take `O=C(NCCC(O)CN1CCN(c2cccc(Cl)c2Cl)CC1)c1ccc2c(c1)Cc1ccccc1-2` (stereo not shown) [Compound 17]: on serotonin 5HT1A receptor, the 5HT1A/D3 came to 1006. Also, the Ki in assay [1] was 319 nM; in [2] (setting [9]) it was 1.8 nM; in assay [2] (setting [10]) it was 1.8 nM; in assay [7], 16400 nM. Besides, at serotonin 5HT2c receptor, the 5HT2c/D worked out at 1572. Besides, the D2/D3 in [2] stood at 177. Moreover, the “partial agonist activity: % stimulation, D3” value in assay [6] was found to be 26%. Further, in assay [6], the EC50 is 42 ± 1.3 nM. Moreover, the 5HT2A/D3 on serotonin 5HT2A receptor came to 303. Moreover, in [7], the “D4/D3 Ki ratio” value was 9110.

In the case of `COc1ccccc1N1CCN(CC(O)CCNC(=O)c2ccc(-c3ccccn3)cc2)CC1` (stereo not shown) [Compound 18, N-(3-Hydroxy-4-(4-(2-methoxy-phenyl)-piperazin-1-yl)-butyl)-4-pyridin-2-yl-benzamide], the 5HT1A/D3 on serotonin 5HT1A receptor was determined as 13. Besides, the IC50 in [4] worked out at 12.8 ± 1.3 nM. For the same compound, the Ki in assay [1] amounted to 284 nM; in assay [2] (setting [9]), 2.8 nM; in assay [2] (setting [10]), 2.8 ± 0.8 nM; in assay [7], 1490 nM. The 5HT2c/D at serotonin 5HT2c receptor was 1407. In addition, the D2/D3 in [2] is reported as 101. Also, the 5HT2A/D3 on serotonin 5HT2A receptor was found to be 248. Also, in [7], the “D4/D3 Ki ratio” value stood at 532.

Take `CC(=O)OC(CCNC(=O)c1ccc(-c2ccccn2)cc1)CN1CCN(c2cccc(Cl)c2Cl)CC1` (stereo not shown) [Compound 20, 1-(4-(2,3-Dichlorophenyl)piperazin-1-yl)-4-(4-(pyridin-2-yl)-benzamido)-butan-2-yl acetate]: the 5HT1A/D3 at serotonin 5HT1A receptor is listed as 10. For the same compound, the Ki was found to be 134 nM in [1], 11.7 nM in [2] (setting [9]) and 11.7 ± 1 nM in assay [2] (setting [10]). Besides, the 5HT2c/D on serotonin 5HT2c receptor is listed as 7. Also, the D2/D3 in assay [2] is listed as 11. Moreover, in [6], the “partial agonist activity: % stimulation, D3” value came to 47%. In addition, the half-maximal effective concentration (EC50) in [6] is 3.9 ± 1.4 nM. In addition, the 5HT2A/D3 at serotonin 5HT2A receptor came out at 7.

As to `O=C(NCC(O)CCN1CCN(c2cccc(Cl)c2Cl)CC1)c1ccc(-c2ccccn2)cc1` (stereo not shown) [Compound 21, N-(4-(4-(2,3-Dichlorophenyl)piperazin-1-yl)-2-hydroxybutyl)-4-(pyridin-2-yl)-benzamide], the 5HT1A/D3 on serotonin 5HT1A receptor is on record as 30. Besides, the 50% inhibitory concentration (IC50) was determined as 5.4 ± 1.8 nM in assay [4] and 88.3 ± 15.7 nM in assay [3]. For the same compound, the figures for the Ki in [1], in [2] (setting [9]) and in [2] (setting [10]) were 28.4 nM, 0.5 nM and 0.5 ± 0.1 nM, respectively. In addition, the 5HT2c/D at serotonin 5HT2c receptor was determined as 50. Also, in assay [2], the D2/D3 is on record as 57. Also, the “partial agonist activity: % stimulation, D3” value in assay [6] is 20%. Also, the concentration giving a half-maximal response (EC50) in assay [6] is 3.4 nM. Further, on serotonin 5HT2A receptor, the 5HT2A/D3 stood at 31.

Take `COc1cc([125I])cc(C(=O)NC2CC3CCCC(C2)N3Cc2ccccc2)c1OC` (stereo not shown) [^125I-IABN]: the “affinity to D1a dopamine receptors” value at D1a dopamine receptors is reported as “low affinity”. Besides, in the assay on σ2 binding sites, the “affinity to σ2 binding sites” value was “low affinity”. In the assay with σ1 binding sites, the “affinity to σ1 binding sites” value is on record as “low affinity”. For the same compound, the “fold lower affinity to human D4.4 dopamine receptors” value in [8] is given as 7- to 10 fold.
